Test results reported in patent US20090155236A1, “Peptide sequence for modulation of delta protein kinase c” (NATIONAL INSTITUES OF HEALTH (NIH), U.S. DEPT OF HEALTH AND …, priority 2004, published 2009).
Positions of bridges follow the written chain, without caps; N, C: chain ends. No end group written: not given here.

Experiments:
[1] = molecular target: T1, delta PKC (Homo sapiens, UniProt Q05655); test: In vitro kinase assay, histone phosphorylation by delta PKC; assay type: biochemical
T1 construct: purchased Panvera LLC, now Invitrogen Corporation
Protocol: In another study, the ability of annexin V to increase the catalytic activity of delta PKC in vitro was evaluated. Full-length, recombinant delta PKC (SEQ ID NO:3) and epsilon PKC (SEQ ID NO:6) were separately incubated in the presence of kinase buffer, ATP, or histone, as described in Example 3. Activators of PKC, phosphatidylserine (PS) and diacylglycerol (DAG), were added along with annexin V, JTV-519, a 1,4 benzothiazepine derivative that activates delta PKC (Inagaki, K. et al., Circulation, 101:797 (2000)), or a mixture of annexin V and JTV-519.
200 ng of pure delta PKC or epsilon PKC (Panvera LLC, now Invitrogen Corporation, Carlsbad, Calif.) were incubated in 100 μL kinase buffer (20 mM Tris pH 7.4, 50 mM MgCl2, 0.3 μCi/reaction [γ-^32P]ATP (Amersham Biosciences), 9 μM/reaction ATP (Sigma), 30 μg/reaction myelin basic protein or histone A1 (Sigma); 100 μM lipid vesicle mixture (90% phosphatidylserine (PS): 10% diacylglycerol (DAG)), 1 mM CaCl2, 1 μM JTV519, and/or 20 ng of Annexin V/reaction were added, where applicable. The kinase reaction was stopped by the addition of SDS sample buffer, and extent of histone phosphorylation assessed after separation on 15% SDS-PAGE and transfer onto nitrocellulose membrane by autoradiography.

[2] = molecular target: T2, annexin V and delta PKC interaction (Homo sapiens, UniProt Q05655); test: Cross-linking immuno-precipitation of delta PKC probed with anti-annexin V in cardiac myocytes; assay type: cell-based; settings: cardiac myocytes stimulated with the agent, FIG. 5
T2 construct: endogenous in cells; host or cells: cardiomyocytes
Protocol: Example 4 describes a study where cardiac myocytes were stimulated with a selected agent and then immuno-precipitated with anti-delta PKC after cross-linking. The cell lysates were then probed with anti-annexin V and visualized with ECL Western blotting. […] The stimulation agent was applied to the cells for times of between 30 seconds to 20 minutes, prior to lysing.
Cardiomyocytes were treated with phorbol 12-myristate 13-acetate (PMA; 10 nM), hydrogen peroxide (H2O2; 5 mM), JTV-519, or delta V1-1 peptide (1 μM) and JTV-519 (1 μM), for times of between 30 seconds to 5 minutes. After the lapsed time, the cells were washed with cold PBS, and homogenized on ice with trituration in homogenization buffer (20 mM Tris pH 7.4, 2 mM EDTA, 10 mM EGTA, 0.25M sucrose, 12 mM O-mercaptoethanol, and protease inhibitor cocktail (Sigma), 0.1% formaldehyde. After 30 min at 4° C., the lysates were quenched with 0.14M glycine for 20 min at 4° C., and samples spun at 14K rpm at 4° C. The supernatant was incubated with 1 μg anti-delta PKC antibody (Santa Cruz Biotechnology, Inc., Santa Cruz, Calif.) for 1 hour, then with proteinG beads (Invitrogen Corporation) for 3 hours at 4° C. The beads where then washed with wash buffer (20 mM Tris pH 7.5, 2 mM EDTA, 100 mM NaCl, 12 mM β-mercaptoethanol, 0.1% Triton), and separated on 7.5% SDS-PAGE, transferred to nitrocellulose, and probed with anti-annexin V (Santa Cruz Biotechnology, Inc., Santa Cruz, Calif.), followed by visualization by ECL Western blotting.

[3] = molecular target: T3, delta PKC/annexin V interaction (Cricetulus griseus, UniProt A0A8C2N0P5); test: Cross-linking co-immunoprecipitation of annexin V and delta PKC in CHO cells; assay type: cell-based
T3 construct: endogenous in cells; host or cells: CHO cells
Protocol: A similar study was conducted to further evaluate the in vitro, intracellular interactions of delta PKC and annexin V. Cellular interactions of delta PKC/annexin V interaction in CHO cells were stabilized with a cross-linking agent, after stimulation with 10 nM PMA. The complexes formed with delta PKC were then immuno-precipitated and tested for the presence of annexin V. The SDS-PAGE gel is shown in FIG. 6A and a corresponding graph quantifying percent association of annexin V and delta PKC as a function of time is shown in FIG. 6B. […] The interaction is relatively short-lived, and the proteins disassociated after 1 minute of stimulation.
The effect of JTV-519, an activator of delta PKC, on the association of annexin V and delta PKC was also evaluated in this study. Cells were treated with JTV-519, and the association of annexin V and delta PKC was examined using the co-immunoprecipitation procedure described above. […] PMA caused the disassociation of the JTV-induced complex at 30 seconds, the time of maximal PMA-induced association. […] Whereas the cytosolic fraction of the cells contained a steady low level of the complex, the majority of the complex was found in the particulate fraction of the cells, and disappearance from the particulate fraction followed the same time-course as observed in whole cell lysates (compare FIG. 6D bottom panel with FIG. 6B).

[4] = molecular target: T4, delta PKC (Cricetulus griseus, UniProt A0A8C2N0P5); test: Translocation of delta PKC to the membrane fraction of CHO cells upon PMA stimulation; assay type: cell-based; settings: CHO cells pretreated 1 μM for 15 minutes, PMA 10 nM for 5 minutes, FIGS. 8A-8B
T4 construct: endogenous in cells; host or cells: CHO cells
Protocol: The ability of the annexin V peptide to block the intracellular interaction of delta PKC and annexin V was illustrated in the following study. The annexin V peptide (SEQ ID NO: 1) was conjugated to a TAT47-57 carrier peptide (SEQ ID NO:26) through an N-terminal Cys-Cys bond, as previously described (Chen, L. et al., Proc. Natl. Acad. Sci. USA, 98:11114-9 ((2001)). This peptide, identified herein as SEQ ID NO:29 and referred to as TAT-AnxV peptide, was used to pretreat (1 μM for 15 minutes) CHO cells prior to stimulation with PMA (10 nM for 5 minutes). For comparison, the annexin V peptide sequence was modified at the Arg (R) residue with a Glu (E) residue, to form a peptide having the sequence LQANEDPD, identified herein as SEQ ID NO:30. Substitution of E for R confers a charge difference between annexin V and delta PKC. This peptide was also attached to a TAT carrier peptide via N-terminal modification with a Cys-Cys bond. The conjugate is referred to herein as TAT-AnxV(R→E) (SEQ ID NO:31) and is denoted in some figures as “EpAnxV.” Cells were similarly pretreated with TAT-AnxV(R→E), prior to stimulation with PMA. As controls, some cells were left untreated and other cells were exposed only to PMA. […]

[5] = system: isolated rat hearts; test: Ex vivo ischemia/reperfusion in isolated rat hearts; settings: for infarct size: treated 10 minutes prior to 30 minutes ischemia, 60 minutes reperfusion, FIG. 9A
Protocol: The physiologic impact of disruption of the delta PKC-annexin V complex was evaluated in an ex vivo ischemia/reperfusion study using the annexin V peptide, TAT-AnxV, and its mutant, TAT-AnxV(R→E). As described in Example 7, isolated rat hearts were treated with TAT-AnxV or TAT-AnxV(R→E) for 10 minutes prior to induction of an ischemic episode. The ischemic episode lasted for 30 minutes, at which time flow to the heart was returned for 60 minutes (reperfusion). After the reperfusion period, cardiac effluent was collected and analyzed for creatine phosphokinase (CPK). The hearts were stained and visually inspected for live and dead tissue. Infarct size was measured by taking the average of the dead (white) tissue on both sides of the tissue slice.
A similar study was conducted, except rather than pretreating the isolated hearts with the annexin V peptide, the peptide was administered after the ischemic event and during the initial 10 minutes of the reperfusion period. Hearts were similarly treated with the mutant peptide, TAT-AnxV(R→E).
Rats were anesthetized and their hearts were rapidly removed and cannulated via the aorta for retrograde perfusion (Colbert, M. et al., J. Clin. Invest., 100:1958 (1997)). The hearts were left untreated, or were pretreated with the annexin V peptide, conjugated to TAT, (TAT-AnxV, SEQ ID NO:29) or with its mutant, TAT-AnxV(R→E) (SEQ ID NO:31), for 10 minutes prior to a 30 minutes of ischemia. Ischemia was induced by interrupting flow for 30 minutes and then reestablishing flow for 60 minutes (reperfusion). Cardiac effluent was collected for 15 minutes after reperfusion and assayed for creatine phosphokinase (CPK) using a Sigma kit. Hearts were stained with 2,3,5-triphenyltetrazolium chloride ([…]) to visualize live tissue (red) and dead tissue (white), and infarct size was measured by taking the average of the white area on both sides of the tissue slice (n=3, p<0.05). Results are shown in FIGS. 9A-9B and FIGS. 10A-10B.

T4 sequence (A0A8C2N0P5 1-676): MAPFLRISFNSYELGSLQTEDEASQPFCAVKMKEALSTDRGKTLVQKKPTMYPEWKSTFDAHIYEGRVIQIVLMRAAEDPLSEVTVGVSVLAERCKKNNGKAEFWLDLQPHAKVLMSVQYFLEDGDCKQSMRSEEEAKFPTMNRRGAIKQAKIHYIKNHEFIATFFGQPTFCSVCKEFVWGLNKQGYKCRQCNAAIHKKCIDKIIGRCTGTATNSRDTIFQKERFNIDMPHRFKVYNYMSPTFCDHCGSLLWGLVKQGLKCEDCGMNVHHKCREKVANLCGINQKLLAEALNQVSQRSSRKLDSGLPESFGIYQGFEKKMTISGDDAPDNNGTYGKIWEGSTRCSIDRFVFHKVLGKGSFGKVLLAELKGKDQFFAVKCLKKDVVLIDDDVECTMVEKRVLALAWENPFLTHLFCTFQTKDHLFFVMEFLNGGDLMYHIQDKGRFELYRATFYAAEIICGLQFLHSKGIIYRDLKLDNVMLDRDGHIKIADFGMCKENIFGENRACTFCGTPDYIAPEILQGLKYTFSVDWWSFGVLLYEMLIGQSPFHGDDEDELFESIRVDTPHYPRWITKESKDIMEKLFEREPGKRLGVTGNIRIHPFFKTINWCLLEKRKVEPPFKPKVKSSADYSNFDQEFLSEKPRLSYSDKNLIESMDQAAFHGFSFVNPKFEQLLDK
T3 sequence (A0A8C2N0P5 1-676): as above
T3 sequence (G3I5A4 1-321 partner): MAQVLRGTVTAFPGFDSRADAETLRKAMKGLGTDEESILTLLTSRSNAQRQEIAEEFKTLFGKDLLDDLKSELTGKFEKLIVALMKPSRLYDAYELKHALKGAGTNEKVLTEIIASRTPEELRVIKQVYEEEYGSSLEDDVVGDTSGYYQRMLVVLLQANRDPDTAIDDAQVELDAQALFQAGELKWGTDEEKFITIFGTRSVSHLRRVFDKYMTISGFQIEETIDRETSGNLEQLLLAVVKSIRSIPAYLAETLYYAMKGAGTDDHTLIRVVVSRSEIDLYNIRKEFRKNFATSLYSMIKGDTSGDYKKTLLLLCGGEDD
T1 sequence (Q05655 whole entry): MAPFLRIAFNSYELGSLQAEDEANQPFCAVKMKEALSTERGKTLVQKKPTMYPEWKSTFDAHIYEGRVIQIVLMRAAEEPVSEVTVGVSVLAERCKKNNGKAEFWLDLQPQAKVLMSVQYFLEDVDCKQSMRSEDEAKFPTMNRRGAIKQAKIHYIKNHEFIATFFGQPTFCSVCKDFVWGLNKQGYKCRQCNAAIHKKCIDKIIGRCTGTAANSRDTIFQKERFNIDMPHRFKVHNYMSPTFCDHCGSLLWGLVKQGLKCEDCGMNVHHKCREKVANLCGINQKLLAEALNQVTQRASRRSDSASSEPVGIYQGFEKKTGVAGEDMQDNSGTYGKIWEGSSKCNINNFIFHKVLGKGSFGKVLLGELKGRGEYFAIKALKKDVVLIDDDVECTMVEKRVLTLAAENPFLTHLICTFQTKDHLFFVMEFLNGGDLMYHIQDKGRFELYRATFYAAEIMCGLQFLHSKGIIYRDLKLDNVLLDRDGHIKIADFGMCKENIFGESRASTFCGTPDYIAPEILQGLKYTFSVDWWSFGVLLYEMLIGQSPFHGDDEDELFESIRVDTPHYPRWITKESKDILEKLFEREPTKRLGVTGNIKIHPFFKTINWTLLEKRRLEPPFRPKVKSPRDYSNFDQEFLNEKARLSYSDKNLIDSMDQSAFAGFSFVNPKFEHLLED
T2 sequence (Q05655 whole entry): as above

Row | Compound | catalytic activity of delta PKC (histone phosphorylation) ([1]; in the presence of PS/DAG, FIG. 4A) | catalytic activity of delta PKC (histone phosphorylation) ([1]; in the presence of annexin V and PS/DAG, FIG. 4A Lane 5) | interaction of annexin V and delta PKC [2] | association of annexin V and delta PKC ([3]; basal conditions, FIGS. 6A-B) | cellular localization of the delta PKC-annexin V complex ([3]; soluble versus particulate fraction, FIG. 6D) | translocation of delta PKC to the cell membrane [4] | infarct size [5] | creatine phosphokinase (CPK) released ([5]; treated 10 minutes prior to ischemia, FIG. 9B)
1 | COc1ccc2c(c1)CN(C(=O)CCN1CCC(Cc3ccccc3)CC1)CCS2 [JTV-519] | about the same extent as observed for delta PKC in the presence of PS/DAG alone | blocked the increased catalytic activity observed with annexin V | greatly enhanced | full association | most of the δPKC-annexin V complex remained in the soluble fraction |  |  | 
2 | TAT-AnxV(R→E): conjugate of SEQ ID NO:30 joined to a TAT carrier peptide through an N-terminal cysteine-cysteine bond (YGRKKRRQRRRCCLQANEDPD; disulfide 12-13 (inferred)) |  |  |  |  |  | lost its inhibitory effect on delta PKC translocation | did not inhibit the delta PKC-induced damage | 
3 | TAT-AnxV: conjugate of SEQ ID NO:1 joined to a TAT carrier peptide through an N-terminal cysteine-cysteine bond (YGRKKRRQRRRCCLQANRDPD; disulfide 12-13 (inferred)) |  |  |  |  |  | blocked the translocation of delta PKC | statistically significant decrease in infarct size | reduced level of creatine phosphokinase
